From article PMC9968064, “First Synthesis of DBU-Conjugated Cationic Carbohydrate Derivatives and Investigation of Their Antibacterial and Antifungal Activity” (International Journal of Molecular Sciences, 2023)
Entries after “also recorded” stand apart in the source; their conditions may differ.

Legend:
Assay type in all cases: cell-based
[1] = tested on: Escherichia coli (ATCC 8739); assay: MIC determination (antibacterial susceptibility test, CLSI / Hungarian Pharmacopeia); conditions: for MIC: Escherichia coli, ATCC8739, tested range 6.25–100 µg/mL; for MIC Escherichia coli (ATCC 8739): tested range 6.25–100 µg/mL
Protocol: (§1) The antimicrobial activity of twenty-two cationic hexopyranoside-amidinium salts (3, 10, 11, 12, 21, 22, 23, 24, 29, 30, 32, 37, 38, 45, 46, 47, 48, 49, 50, 51, 52 and 53) were compared in susceptibility tests (Table 2). The effectiveness of all compounds was tested on Staphylococcus aureus ssp. aureus (ATCC 6538), Escherichia coli (ATCC 8739) and Candida albicans (ATCC 10231). We tested the antimicrobial activity of the compounds at the concentration range of 6.25–100 µg/mL.
(§2) The detection of the antibacterial and antifungal effects of the tested compounds and the determination of the minimum inhibitory concentration (MIC) were carried out based on the method of CLSI [48] and Hungarian Pharmacopeia (chapters VIII. 2.6.12–13.).
(§3) For the antimicrobial studies, we used three human pathogens as test organisms: Candida albicans (ATCC 10231), Staphylococcus aureus subspecies aureus (ATCC 6538) and Escherichia coli (ATCC 8739).
(§4) Staphylococcus aureus subspecies aureus and Escherichia coli were cultured on tryptic soya agar (TSA) for 18–24 h at 37 °C. Candida albicans was cultured on Sabouraud dextrose agar (SDA) for 18–24 h at 37 °C. To obtain cells for suspension, we made cell suspensions from Staph. aureus, E. coli and C. albicans with the cotton swab suspension technique. The dilution of suspension was then made with 0.85% NaCl solution, absorbance being set to A600nm = 0.06. a volume of 10 μL of these suspensions contained ~4.5–6.0 × 10^4 colony forming unit (CFU) (bacteria) and ~1.5–2.0 × 10^3 CFU for yeast.
(§5) Tested agents were diluted with DMSO; the concentration of stock solutions was 4 mg/mL; and to ensure sterility, the closed sample containers were incubated at 35 °C for 1 h. The highest final concentration was 100 μg/mL.
(§6) Testing was performed in 24-well plates, and cell suspensions were prepared with 0.85% NaCl solution. Stock solutions were made from the agents with DMSO (100%). Final concentrations of used compounds were 6.25–100 µg/mL. […] After inoculation, plates were incubated at 35 °C, and results were then read visually after 18–24 h. If microbial growth could not be detected, results were read visually after 72 h. If there was no growth after 72 h, incubation was continued till the fifth day of the experiment and the results were read visually and with plate reader at 600 nm after 120 h.
(§7) The MIC value of a compound was defined as the minimal concentration that inhibits the growth of bacteria and yeasts comparing to the control. The results of the antibacterial and antifungal tests were read visually after 24, 48, 72 and 120 h. The microbial growth was measured by plate reader at 600 nm after 120 h.

[2] = tested on: Staphylococcus aureus ssp. aureus (ATCC 6538); assay: as above; conditions: for MIC: Staphylococcus aureus, ATCC6538, tested range 6.25–100 µg/mL; for MIC Staphylococcus aureus (ATCC 6538): tested range 6.25–100 µg/mL
Protocol: as §1, §2, §3, §4, §5, §6, §7

[3] = tested on: Candida albicans (ATCC 10231); assay: MIC determination (antifungal susceptibility test); conditions: Candida albicans, ATCC10231, tested range 6.25–100 µg/mL; read-out: MIC Candida albicans (ATCC 10231)
Protocol: as §1, §2, §3, §4, §5
as §6, with “Final concentrations of used compounds were 6.25–100 µg/mL.” left out
as §7

[4] = tested on: HaCaT (human keratinocyte) cell line; assay: MTT viability test on HaCaT cells; conditions: 24 h; for IC50: Homo sapiens, HaCaT, 50–3.125 µg/mL
Protocol: The cytotoxic effect of six selected compounds (3, 10, 12, 21, 22 and 29) with promising antimicrobial activity was studied on HaCaT (human keratinocyte) cell lines. Using the MTT-test, we determined the viability of the cells (Figure 3), and the half maximal inhibitory concentration (IC50) values of the compounds are summarized in Table 4. The duration of tests was 24 h; the examined concentrations were: 50–25–12.5–6.25–3.125 µg/mL. The IC50 value of a compound was defined as the concentration that inhibits cell growth by 50% relative to the control. […], the medium containing the inhibitor was removed, and 10 μL MTT solution was added to the cells. The plates were then incubated for two hours at 37 °C. The medium from the wells was then carefully aspirated, and MTT formazan dissolved with 100 μL of DMSO aided by gentle agitation on a shaker. After 10 min at room temperature, the absorbances were read at 570 nm by an automatic plate reader. The percentage of viability reflecting the respiratory potential of the cell population in each well was expressed as (absorbance of treated cells/absorbance of control cells) × 100. IC50 values of tested agents were determined by Graphpad (Prism) semi-log line fitting (graphpad.com (8)). The MTT test was performed after treatment and removal of inhibitors followed by the addition of 10 μL of MTT solution to the cells. We tested the toxic effect of compounds 3, 10, 12, 21, 22 and 29 on HaCaT cell line. HaCaT is a spontaneously transformed, aneuploid keratinocyte, an adherent cell type derived from the epithelium of Human […] adult skin. The cell line was immortalized in 1986 under low calcium and high-temperature conditions. Cells were cultured in DMEM medium (iBiotech, Szigetszentmiklós, Hungary) containing 10% fetal bovine serum (FBS, iBiotech, Szigetszentmiklós, Hungary) and 1% antibiotic-antimycotic mix (Penicillin–Streptomycin–Neomycin).

MIC [1] [µg/mL] | MIC [2] [µg/mL] | MIC Escherichia coli (ATCC 8739) [1] [µg/mL] | MIC Staphylococcus aureus (ATCC 6538) [2] [µg/mL] | MIC [3] [µg/mL] | SMILES | cytotoxic effect on HaCaT cells (in words) [4] | IC50 [4] [µg/mL]
≥ 100 | 6.25 to 50 |  |  |  | O=C(O[C@H]1[C@@H](OCc2ccccc2)[C@H](OCc2ccc3ccccc3c2)[C@@H](C[N+]2=C3CCCCCN3CCC2)O[C@@H]1Sc1ccccc1)c1ccccc1 [Compound 24] |  | 
> 100 | > 100 | >100 | >100 | > 100 | O=C(O[C@H]1[C@H](OC(=O)c2ccccc2)[C@@H](Sc2ccccc2)O[C@H](C[N+]2=C3CCCCCN3CCC2)[C@H]1OCc1ccc2ccccc2c1)c1ccccc1 [Compound 38] |  | 
> 100 |  |  |  |  | CCS[C@H]1O[C@H](C[N+]2=C3CCCCCN3CCC2)[C@@H](O)[C@H](OCc2ccccc2)[C@H]1OCc1ccccc1 [Compound 48, 8-N-[ethyl 2,3-di-O-benzyl-6-deoxy-6-yl-1-thio-α-D-glucopyranoside]-1,8-diazabicyclo(5.4.0)undec-7-ene-chloride] |  | 
> 100 | > 100 | >100 | >100 | > 100 | CCS[C@H]1O[C@H](C[N+]2=C3CCCCCN3CCC2)[C@@H](OCc2ccc3ccccc3c2)[C@H](OC(=O)c2ccccc2)[C@H]1OC(=O)c1ccccc1 [Compound 11] |  | 
≥ 100 |  |  |  |  | CCS[C@H]1O[C@H](C[N+]2=C3CCCCCN3CCC2)[C@@H](OCc2ccc3ccccc3c2)[C@@H](OC(=O)c2ccccc2)[C@H]1OC(=O)c1ccccc1 [Compound 30] |  | 
> 100 | 6.25 to 50 |  |  |  | CO[C@H]1O[C@H](C[N+]2=C3CCCCCN3CCC2)[C@@H](OCc2ccccc2)[C@H](OC(=O)c2ccccc2)[C@H]1OC(=O)c1ccccc1 [Compound 3, 8-N-[methyl 6-deoxy-6-yl-2,3-di-O-benzoyl-4-O-benzyl-α-D-glucopyranoside]-1,8-diazabicyclo(5.4.0)undec-7-ene-iodide] | strongest cytotoxic effect | 0.13 ± 0.06
> 100 | 6.25 to 50 |  |  | 6.25 to 50 | O[C@H]1[C@@H](OCc2ccccc2)[C@H](OCc2ccc3ccccc3c2)[C@@H](C[N+]2=C3CCCCCN3CCC2)O[C@@H]1Sc1ccccc1 [Compound 53, 8-N-[phenyl 3-O-benzyl-6-deoxy-6-yl-4-O-(2′-naphthyl)methyl-1-thio-α-D-mannopyranoside]-1,8-diazabicyclo(5.4.0)undec-7-ene-acetate] |  | 
> 100 |  |  |  | > 100 | c1ccc(CO[C@H]2[C@H](OCc3ccccc3)[C@@H](Sc3ccccc3)O[C@H](C[N+]3=C4CCCCCN4CCC3)[C@H]2OCc2ccc3ccccc3c2)cc1 [Compound 37] |  | 
> 100 |  |  |  |  | O[C@H]1[C@H](OCc2ccccc2)[C@H](OCc2ccccc2)[C@@H](Sc2ccccc2)O[C@@H]1C[N+]1=C2CCCCCN2CCC1 [Compound 50, 8-N-[phenyl 2,3-di-O-benzyl-6-deoxy-6-yl-1-thio-α-D-mannopyranoside]-1,8-diazabicyclo(5.4.0)undec-7-ene-chloride] |  | 
> 100 | 6.25 to 50 |  |  |  | O[C@@H]1[C@H](O)[C@@H](Sc2ccccc2)O[C@H](C[N+]2=C3CCCCCN3CCC2)[C@H]1OCc1ccc2ccccc2c1 [Compound 51, 8-N-[phenyl 6-deoxy-6-yl-4-O-(2′-naphthyl)methyl-1-thio-α-D-mannopyranoside]-1,8-diazabicyclo(5.4.0)undec-7-ene-chloride] |  | 
> 100 | 6.25 to 50 |  |  |  | c1ccc(CO[C@H]2[C@@H](OCc3ccc4ccccc4c3)[C@H](OCc3ccccc3)[C@@H](C[N+]3=C4CCCCCN4CCC3)O[C@@H]2Sc2ccccc2)cc1 [Compound 21] | significant toxic effect; also recorded: cytotoxic | 1.02 ± 0.06
≥ 100 | 6.25 to 50 |  |  | > 100 | CCS[C@H]1O[C@H](C[N+]23CCN(CC2)CC3)[C@@H](OCc2ccc3ccccc3c2)[C@@H](OC(=O)c2ccccc2)[C@H]1OC(=O)c1ccccc1 [Compound 32] |  | 
> 100 | > 100 | >100 | >100 | > 100 | CCS[C@H]1O[C@H](C[N+]2=C3CCCCCN3CCC2)[C@@H](OCc2ccc3ccccc3c2)[C@H](O)[C@H]1O [Compound 46, 8-N-[ethyl 6-deoxy-6-yl-4-O-(2′-naphthyl)methyl-1-thio-α-D-glucopyranoside]-1,8-diazabicyclo(5.4.0)undec-7-ene-chloride] |  | 
> 100 | > 100 | >100 | >100 | > 100 | CCS[C@H]1O[C@H](C[N+]2=C3CCCCCN3CCC2)[C@@H](O)[C@H](O)[C@H]1O [Compound 47, 8-N-[ethyl 6-deoxy-6-yl-1-thio-α-D-glucopyranoside]-1,8-diazabicyclo(5.4.0)undec-7-ene-chloride] |  | 
> 100 | > 100 |  |  | > 100 | O=C(O[C@@H]1[C@H](OC(=O)c2ccccc2)[C@@H](Sc2ccccc2)O[C@H](C[N+]2=C3CCCCCN3CCC2)[C@H]1OCc1ccc2ccccc2c1)c1ccccc1 [Compound 23] |  | 
> 100 | > 100 | >100 | >100 | > 100 | CO[C@H]1O[C@H](C[N+]2=C3CCCCCN3CCC2)[C@@H](OCc2ccccc2)[C@H](O)[C@H]1O [Compound 45, 8-N-[methyl 6-deoxy-6-yl-4-O-benzyl-α-D-glucopyranoside]-1,8-diazabicyclo(5.4.0)undec-7-ene-chloride] |  | 
> 100 | > 100 |  |  | > 100 | O=C(O[C@H]1[C@@H](OCc2ccccc2)[C@H](O)[C@@H](C[N+]2=C3CCCCCN3CCC2)O[C@@H]1Sc1ccccc1)c1ccccc1 [Compound 52, 8-N-[phenyl 2-O-benzoyl-3-O-benzyl-6-deoxy-6-yl-1-thio-α-D-mannopyranoside]-1,8-diazabicyclo(5.4.0)undec-7-ene-chloride] |  | 
> 100 | > 100 | >100 | >100 | > 100 | O[C@@H]1[C@H](OCc2ccccc2)[C@@H](Sc2ccccc2)O[C@H](C[N+]2=C3CCCCCN3CCC2)[C@H]1OCc1ccccc1 [Compound 49, 8-N-[phenyl 2,4-di-O-benzyl-6-deoxy-6-yl-1-thio-α-D-mannopyranoside]-1,8-diazabicyclo(5.4.0)undec-7-ene-chloride] |  | 
